Experimental data taken from patent US9637492B2, “Benzothiazole kinase inhibitors and methods of use” (Intellikine LLC, priority 2008, dated 2017).

Legend:
mTORC = target: T1, mTORC (Homo sapiens, UniProt P42345); experiment: mTOR inhibition assay (Table 4, mTORC); assay type: biochemical; conditions: binned
T1 construct: purchased Invitrogen
Protocol: The compounds described herein can be tested against recombinant mTOR (Invitrogen) in an assay containing 50 mM HEPES, pH 7.5, 1 mM EGTA, 10 mM MgCl2, 2.5 mM, 0.01% Tween, 10 μM ATP (2.5 μCi of […]), and 3 μg/mL BSA. Rat recombinant PHAS-1/4EBP1 (Calbiochem; 2 mg/mL) is used as a substrate. Reactions are terminated by spotting onto nitrocellulose, which is washed with 1M NaCl/1% phosphoric acid (approximately 6 times, 5-10 minutes each). Sheets are dried and the transferred radioactivity quantitated by phosphorimaging.
Other kits or systems for assaying mTOR activity are commercially avaiable. For instance, one can use Invitrogen's LanthaScreen™ Kinase assay to test the inhibitors of mTOR disclosed herein. This assay is a time resolved FRET platform that measures the phosphorylation of GFP labeled 4EBP1 by mTOR kinase. The kinase reaction is performed in a white 384 well microtitre plate. The total reaction volume is 20 ul per well and the reaction buffer composition is 50 mM HEPES pH7.5, 0.01% Polysorbate 20, 1 mM EGTA, 10 mM MnC12, and 2 mM DTT. In the first step, each well receives 2 ul of test compound in 20% dimethylsulphoxide resulting in a 2% DMSO final concentration. Next, 8 ul of mTOR diluted in reaction buffer is added per well for a 60 ng/ml final concentration. To start the reaction, 10 ul of an ATP/GFP-4EBP1 mixture (diluted in reaction buffer) is added per well for a final concentration of 10 uM ATP and 0.5 uM GFP-4EBP1. The plate is sealed and incubated for 1 hour at room temperature. The reaction is stopped by adding 10 ul per well of a Tb-anti-pT46 4EBP1 antibody/EDTA mixture (diluted in TR-FRET buffer) for a final concentration of 1.3 nM antibody and 6.7 mM EDTA. The plate is sealed, incubated for 1 hour at room temperature, and then read on a plate reader set up for LanthaScreen™ TR-FRET. Data is analyzed and IC50s are generated using GraphPad Prism 5.

PI3K alpha = target: T2, PI3K alpha (Homo sapiens, UniProt P42336); experiment: PI3K alpha inhibition assay; assay type: biochemical; conditions: binned
T2 construct: purchased Upstate
Protocol: (§1) For TLC analysis, reactions are then terminated by the addition of 105 μl 1N HCl followed by 160 μl CHC13:MeOH (1:1). The biphasic mixture is vortexed, briefly centrifuged, and the organic phase is transferred to a new tube using a gel loading pipette tip precoated with CHCl3. […] The TLC plates are then dried, exposed to a phosphorimager screen (Storm, Amersham), and quantitated.
(§2) Anr exemplary system is PI 3-Kinase (human) HTRF™ Assay from Upstate. […] Briefly, the assay is a time resolved FRET assay that indirectly measures PIP3 product formed by the activity of a PI3-K. The kinase reaction is performed in a microtitre plate (e.g., a 384 well microtitre plate). The total reaction volume is approximately 20 ul per well. In the first step, each well receives 2 ul of test compound in 20% dimethylsulphoxide resulting in a 2% DMSO final concentration. Next, approximately 14.5 ul of a kinase/PIP2 mixture (diluted in 1× reaction buffer) is added per well for a final concentration of 0.25-0.3 ug/ml kinase and 10 uM PIP2. The plate is sealed and incubated for 15 minutes at room temperature. To start the reaction, 3.5 ul of ATP (diluted in 1× reaction buffer) is added per well for a final concentration of 10 uM ATP. The plate is sealed and incubated for 1 hour at room temperature. The reaction is stopped by adding 5 ul of Stop Solution per well and then 5 ul of Detection Mix is added per well. The plate is sealed, incubated for 1 hour at room temperature, and then read on an appropriate plate reader. Data is analyzed and IC50s are generated using GraphPad Prism 5.

B6.Sle1z.Sle3z model = conditions: cited from earlier work
PI3K delta = target: T3, PI3K delta (Homo sapiens, UniProt O00329); experiment: PI3K delta inhibition assay; assay type: biochemical; conditions: binned
T3 construct: purchased Upstate
T3 sequence (O00329 whole entry): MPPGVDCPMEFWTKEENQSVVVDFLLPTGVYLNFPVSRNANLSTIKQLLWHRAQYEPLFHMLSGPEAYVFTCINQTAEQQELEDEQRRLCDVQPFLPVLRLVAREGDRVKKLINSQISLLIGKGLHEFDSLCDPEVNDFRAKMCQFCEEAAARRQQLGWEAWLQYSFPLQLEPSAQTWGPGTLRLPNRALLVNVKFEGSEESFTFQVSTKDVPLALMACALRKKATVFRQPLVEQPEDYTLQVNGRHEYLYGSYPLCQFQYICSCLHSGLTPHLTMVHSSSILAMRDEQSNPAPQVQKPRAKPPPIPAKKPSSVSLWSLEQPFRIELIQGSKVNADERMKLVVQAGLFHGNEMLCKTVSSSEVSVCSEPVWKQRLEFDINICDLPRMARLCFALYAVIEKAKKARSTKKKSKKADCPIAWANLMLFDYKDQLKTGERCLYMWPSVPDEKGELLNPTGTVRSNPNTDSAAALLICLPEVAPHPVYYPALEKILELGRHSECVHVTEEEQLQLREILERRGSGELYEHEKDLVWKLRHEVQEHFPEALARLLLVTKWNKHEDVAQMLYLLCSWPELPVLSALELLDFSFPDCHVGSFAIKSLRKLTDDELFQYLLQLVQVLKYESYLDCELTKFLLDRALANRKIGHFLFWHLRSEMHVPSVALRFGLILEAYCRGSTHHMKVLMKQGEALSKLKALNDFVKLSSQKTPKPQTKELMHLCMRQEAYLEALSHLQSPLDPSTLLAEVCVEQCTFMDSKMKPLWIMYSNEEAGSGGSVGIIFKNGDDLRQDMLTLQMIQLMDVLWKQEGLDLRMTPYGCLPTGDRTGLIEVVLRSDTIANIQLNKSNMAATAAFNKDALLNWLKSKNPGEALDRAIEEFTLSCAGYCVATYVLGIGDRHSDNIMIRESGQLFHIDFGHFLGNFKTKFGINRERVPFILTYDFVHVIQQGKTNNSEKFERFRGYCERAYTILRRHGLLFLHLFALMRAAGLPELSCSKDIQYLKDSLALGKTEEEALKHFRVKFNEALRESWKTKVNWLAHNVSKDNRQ
T3 sequence (P27986 whole entry partner): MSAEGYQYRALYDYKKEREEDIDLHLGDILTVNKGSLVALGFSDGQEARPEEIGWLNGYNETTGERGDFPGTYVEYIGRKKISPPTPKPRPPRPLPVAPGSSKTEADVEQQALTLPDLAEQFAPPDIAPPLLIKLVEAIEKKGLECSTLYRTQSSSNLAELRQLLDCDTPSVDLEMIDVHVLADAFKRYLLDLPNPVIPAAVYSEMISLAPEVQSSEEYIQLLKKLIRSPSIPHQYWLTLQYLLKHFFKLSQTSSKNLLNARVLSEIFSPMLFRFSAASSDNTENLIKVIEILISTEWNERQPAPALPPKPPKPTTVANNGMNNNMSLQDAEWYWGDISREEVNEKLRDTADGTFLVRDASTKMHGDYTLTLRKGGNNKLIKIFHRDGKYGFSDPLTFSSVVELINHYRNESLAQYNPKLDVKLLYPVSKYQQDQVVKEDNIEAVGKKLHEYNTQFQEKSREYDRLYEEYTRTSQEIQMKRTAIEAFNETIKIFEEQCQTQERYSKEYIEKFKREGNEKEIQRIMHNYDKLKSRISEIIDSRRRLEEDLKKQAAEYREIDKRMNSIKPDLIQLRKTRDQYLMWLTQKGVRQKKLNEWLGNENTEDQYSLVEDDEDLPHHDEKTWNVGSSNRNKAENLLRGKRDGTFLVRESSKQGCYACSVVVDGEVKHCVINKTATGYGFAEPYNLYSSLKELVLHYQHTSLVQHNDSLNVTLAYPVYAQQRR
Protocol: as §1, §2

PI3K beta = target: T4, PI3K beta (Homo sapiens, UniProt P42338); experiment: PI3K beta inhibition assay; assay type: biochemical; conditions: binned
T4 construct: purchased Upstate
T4 sequence (P42338 whole entry): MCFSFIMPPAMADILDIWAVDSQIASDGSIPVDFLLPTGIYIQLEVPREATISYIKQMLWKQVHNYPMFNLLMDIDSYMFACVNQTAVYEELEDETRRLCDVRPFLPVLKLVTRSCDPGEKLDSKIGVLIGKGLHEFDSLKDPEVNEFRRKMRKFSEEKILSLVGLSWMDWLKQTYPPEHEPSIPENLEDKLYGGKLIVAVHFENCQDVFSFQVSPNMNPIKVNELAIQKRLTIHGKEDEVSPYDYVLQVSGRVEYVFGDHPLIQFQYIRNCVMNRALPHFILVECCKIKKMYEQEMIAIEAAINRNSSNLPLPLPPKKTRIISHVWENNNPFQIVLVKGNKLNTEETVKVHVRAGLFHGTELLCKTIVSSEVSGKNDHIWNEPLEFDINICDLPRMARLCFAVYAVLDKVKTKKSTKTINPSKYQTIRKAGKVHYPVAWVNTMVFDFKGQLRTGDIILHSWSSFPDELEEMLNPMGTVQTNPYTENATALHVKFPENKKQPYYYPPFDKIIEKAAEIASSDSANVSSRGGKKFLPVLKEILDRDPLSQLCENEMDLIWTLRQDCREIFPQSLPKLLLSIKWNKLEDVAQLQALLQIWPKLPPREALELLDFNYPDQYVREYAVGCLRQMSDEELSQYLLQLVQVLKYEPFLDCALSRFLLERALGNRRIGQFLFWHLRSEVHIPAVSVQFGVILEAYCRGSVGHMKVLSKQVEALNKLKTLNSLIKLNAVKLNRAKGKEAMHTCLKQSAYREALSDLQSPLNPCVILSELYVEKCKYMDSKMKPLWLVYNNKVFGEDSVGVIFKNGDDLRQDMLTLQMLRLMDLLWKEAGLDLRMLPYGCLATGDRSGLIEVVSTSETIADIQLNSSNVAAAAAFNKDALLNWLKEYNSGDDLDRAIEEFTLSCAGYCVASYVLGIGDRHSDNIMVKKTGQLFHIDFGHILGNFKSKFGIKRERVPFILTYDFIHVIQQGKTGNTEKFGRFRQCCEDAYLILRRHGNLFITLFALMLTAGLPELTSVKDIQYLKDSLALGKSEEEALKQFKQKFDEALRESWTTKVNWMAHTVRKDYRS
T4 sequence (P27986 2-724 partner): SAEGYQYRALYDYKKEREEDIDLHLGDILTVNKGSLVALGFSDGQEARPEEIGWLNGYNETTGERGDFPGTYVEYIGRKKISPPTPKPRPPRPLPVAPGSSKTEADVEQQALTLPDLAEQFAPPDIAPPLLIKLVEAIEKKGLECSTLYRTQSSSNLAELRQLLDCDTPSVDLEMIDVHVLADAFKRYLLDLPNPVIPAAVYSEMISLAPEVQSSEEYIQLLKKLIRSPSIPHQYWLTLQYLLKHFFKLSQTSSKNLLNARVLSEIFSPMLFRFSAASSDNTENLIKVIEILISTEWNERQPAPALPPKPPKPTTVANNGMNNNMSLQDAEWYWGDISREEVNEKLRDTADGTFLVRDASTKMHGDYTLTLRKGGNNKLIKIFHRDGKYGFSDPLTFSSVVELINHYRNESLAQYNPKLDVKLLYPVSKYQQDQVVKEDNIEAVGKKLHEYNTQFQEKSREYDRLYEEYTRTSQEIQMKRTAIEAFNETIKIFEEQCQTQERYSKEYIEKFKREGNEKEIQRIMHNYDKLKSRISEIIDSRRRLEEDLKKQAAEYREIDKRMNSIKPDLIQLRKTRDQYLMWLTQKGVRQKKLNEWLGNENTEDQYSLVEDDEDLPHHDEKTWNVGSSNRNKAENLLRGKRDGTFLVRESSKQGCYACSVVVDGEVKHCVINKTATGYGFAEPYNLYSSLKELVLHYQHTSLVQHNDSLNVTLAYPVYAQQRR
Protocol: as §1, §2

PI3K gamma = target: T5, PI3K gamma (Homo sapiens, UniProt P48736); experiment: PI3K gamma inhibition assay; assay type: biochemical; conditions: binned
T5 construct: purchased Sigma
Protocol: For TLC analysis, reactions are then terminated by the addition of 105 μl 1N HCl followed by 160 μl CHC13:MeOH (1:1). The biphasic mixture is vortexed, briefly centrifuged, and the organic phase is transferred to a new tube using a gel loading pipette tip precoated with CHCl3. This extract is spotted on TLC plates and developed for 3-4 hours in a 65:35 solution of n-propanol:1M acetic acid. The TLC plates are then dried, exposed to a phosphorimager screen (Storm, Amersham), and quantitated. For each compound, kinase activity is measured at 10-12 inhibitor concentrations representing two-fold dilutions from the highest concentration tested (typically, 200 μM).
Other commercial kits or systems for assaying PI3-K activities are available. The commercially available kits or systems can be used to screen for inhibitors and/or agonists of PI3-Ks including but not limited to PI 3-Kinase α, β, δ, and γ. Anr exemplary system is PI 3-Kinase (human) HTRF™ Assay from Upstate. […] Briefly, the assay is a time resolved FRET assay that indirectly measures PIP3 product formed by the activity of a PI3-K. The kinase reaction is performed in a microtitre plate (e.g., a 384 well microtitre plate). […] The plate is sealed, incubated for 1 hour at room temperature, and then read on an appropriate plate reader. Data is analyzed and IC50s are generated using GraphPad Prism 5.

[1] = test system: p190 transduced leukemic cells; conditions: about 70 mg/kg twice daily; cited from earlier work
PC3 = experiment: Tumor cell line proliferation assay (Alamar Blue); assay type: cell-based; conditions: Homo sapiens, PC-3; binned
Protocol: The ability of one or more subject compounds to inhibit tumor cell line proliferation is determined according to standard procedures known in the art. For instance, an in vitro cellular proliferation assay can be performed to measure the metabolic activity of live cells. The assay is performed in a 96 well microtiter plate using Alamar Blue reduction. Human tumor cell lines are obtained from ATCC (e.g., MCF7, U-87 MG, MDA-MB-468, PC-3), grown to confluency in T75 flasks, trypsinized with 0.25% trypsin, washed one time with Tumor Cell Media (DMEM+10% FBS), and plated in 90 ul at 5,000 cells/well in Tumor Cell Media. A compound disclosed herein is diluted in Tumor Cell Media and added in a 10 ul volume. Plates are incubated for 72 hours at 37 C and 5% CO2. A volume of 10 uL of Alamar Blue reagent is added to each well and plates are incubated for 3 hours at 37 C and 5% CO2. Alamar Blue fluoresce is read at 560Ex/590Em, and IC50 values are calculated using GraphPad Prism 5.

[2] = control or reference compounds, 5 μM; cited from earlier work
[3] = PBS pH 7.4, 37° C., over the course of 24 hours; cited from earlier work

T1 sequence (P42345 1360-2549 limits assumed): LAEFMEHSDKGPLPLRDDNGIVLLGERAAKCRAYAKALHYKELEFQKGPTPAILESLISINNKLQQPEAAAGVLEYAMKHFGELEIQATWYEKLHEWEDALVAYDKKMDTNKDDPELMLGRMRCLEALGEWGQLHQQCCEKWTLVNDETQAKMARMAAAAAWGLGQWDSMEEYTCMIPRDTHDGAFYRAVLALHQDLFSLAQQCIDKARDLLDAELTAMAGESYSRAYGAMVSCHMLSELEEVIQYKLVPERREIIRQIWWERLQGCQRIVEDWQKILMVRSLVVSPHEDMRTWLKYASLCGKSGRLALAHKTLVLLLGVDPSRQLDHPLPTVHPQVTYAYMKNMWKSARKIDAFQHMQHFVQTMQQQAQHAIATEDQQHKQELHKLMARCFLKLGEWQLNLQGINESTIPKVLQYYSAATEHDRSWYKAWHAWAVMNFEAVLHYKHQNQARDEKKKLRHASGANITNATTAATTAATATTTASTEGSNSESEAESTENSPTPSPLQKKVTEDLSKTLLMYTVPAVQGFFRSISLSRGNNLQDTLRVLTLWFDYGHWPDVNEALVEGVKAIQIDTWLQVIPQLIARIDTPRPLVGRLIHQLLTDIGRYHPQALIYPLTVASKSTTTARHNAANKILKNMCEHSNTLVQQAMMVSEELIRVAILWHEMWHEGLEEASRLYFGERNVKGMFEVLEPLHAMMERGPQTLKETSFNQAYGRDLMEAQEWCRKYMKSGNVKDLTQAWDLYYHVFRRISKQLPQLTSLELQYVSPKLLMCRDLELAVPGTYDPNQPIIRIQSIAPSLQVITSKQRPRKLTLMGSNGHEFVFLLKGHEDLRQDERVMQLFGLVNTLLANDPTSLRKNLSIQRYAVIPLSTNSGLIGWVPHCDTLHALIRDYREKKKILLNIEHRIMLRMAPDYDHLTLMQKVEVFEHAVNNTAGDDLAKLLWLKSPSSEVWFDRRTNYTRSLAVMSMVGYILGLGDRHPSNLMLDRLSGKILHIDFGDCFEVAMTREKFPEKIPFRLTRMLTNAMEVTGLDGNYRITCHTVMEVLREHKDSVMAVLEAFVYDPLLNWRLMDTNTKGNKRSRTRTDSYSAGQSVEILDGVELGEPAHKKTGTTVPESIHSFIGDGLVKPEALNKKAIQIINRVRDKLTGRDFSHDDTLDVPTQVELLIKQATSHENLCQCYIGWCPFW

CC(C)n1nc(-c2ccc3nc(N4CCOCC4)sc3c2)c2c(N)ncnc21 [Compound 14]
IC50 (mTORC): > 1000 nM | IC50 (PI3K alpha): > 1000 nM

CC(C)C(=O)Nc1nc2ccc(-c3nn(C(C)C)c4ncnc(N)c34)cc2s1 [Compound 7]
IC50 (mTORC): > 1000 nM

CO[C@H]1C[C@@H]2CC[C@@H](C)[C@@](O)(O2)C(=O)C(=O)N2CCCC[C@H]2C(=O)O[C@H]([C@H](C)C[C@@H]2CC[C@@H](OCCO)[C@H](OC)C2)CC(=O)[C@H](C)/C=C(\C)[C@@H](O)[C@@H](OC)C(=O)[C@H](C)C[C@H](C)/C=C/C=C/C=C/1C [RAD001]
lupus symptoms (B6.Sle1z.Sle3z model): ameliorate lupus symptoms

CC(C)n1nc(-c2ccc3ncsc3c2)c2c(N)ncnc21 [Compound 2]
IC50 (mTORC): > 1000 nM

CC(=O)Nc1nc2cc(-c3nn(C(C)C)c4ncnc(N)c34)ccc2s1 [Compound 17]
IC50 (mTORC): ≤ 1000 nM

CC(=O)Nc1nc2ccc(-c3nn(C4CCC4)c4ncnc(N)c34)cc2s1 [Compound 10]
IC50 (mTORC): ≤ 100 nM | IC50 (PI3K alpha): ≤ 100 nM | IC50 (PI3K delta): ≤ 100 nM

CNc1nc2ccc(-c3nn(C(C)C)c4ncnc(N)c34)cc2s1 [Compound 11]
IC50 (mTORC): ≤ 50 nM | IC50 (PI3K alpha): ≤ 100 nM | IC50 (PI3K beta): > 1000 nM | IC50 (PI3K delta): ≤ 500 nM

CNC(=O)Cn1nc(-c2ccc3nc(NC(C)=O)sc3c2)c2c(N)ncnc21 [Compound 18]
IC50 (mTORC): > 1000 nM | IC50 (PI3K gamma): > 1000 nM | IC50 (PI3K beta): > 1000 nM

CCn1nc(-c2ccc3nc(NC(C)=O)sc3c2)c2c(N)ncnc21 [Compound 5]
IC50 (mTORC): ≤ 50 nM | IC50 (PI3K alpha): ≤ 100 nM | IC50 (PI3K beta): > 1000 nM

Cc1ccc(NC(=O)c2ccc(CN3CCN(C)CC3)cc2)cc1Nc1nccc(-c2cccnc2)n1 [imatinib]
leukemogenesis [1]: delay but not cure leukemogenesis

CNC(=O)Nc1nc2ccc(-c3cn(C4CCOCC4)c4ncnc(N)c34)cc2s1 [Compound 21]
IC50 (mTORC): ≤ 50 nM | IC50 (PC3): ≤ 1000 nM

CC(=O)Nc1nc2ccc(-c3nn(C)c4ncnc(N)c34)cc2s1 [Compound 6]
IC50 (mTORC): > 1000 nM | IC50 (PI3K alpha): ≤ 1000 nM

CCCOc1cc(N)ccc1C(=O)OCCN(CC)CC [propoxycaine]
plasma stability [2]: low plasma stability

CC(C)n1nc(-c2ccc3nc(NC(=O)C4CC4)sc3c2)c2c(N)ncnc21 [Compound 8]
IC50 (mTORC): ≤ 500 nM | IC50 (PI3K alpha): ≤ 1000 nM

CNC(=O)Nc1nc2ccc(-c3cn(C(C)C)c4ncnc(N)c34)cc2s1 [Compound 22]
IC50 (mTORC): ≤ 50 nM | IC50 (PC3): ≤ 100 nM

CCC(=O)Nc1nc2ccc(-c3nn(C(C)C)c4ncnc(N)c34)cc2s1 [Compound 9]
IC50 (mTORC): ≤ 500 nM | IC50 (PI3K alpha): ≤ 500 nM

CC(=O)Nc1nc2ccc(-c3nn(C(C)C)c4ncnc(N)c34)cc2s1 [Compound 1]
IC50 (mTORC): ≤ 50 nM | IC50 (PI3K alpha): ≤ 500 nM | IC50 (PI3K beta): > 1000 nM

O=C(O)CCCc1ccc(N(CCCl)CCCl)cc1 [chlorambucil]
chemical stability [3]: largely hydrolyzed

CC(C)n1nc(-c2ccc3nc(NCCN4CCOCC4)sc3c2)c2c(N)ncnc21 [Compound 13]
IC50 (mTORC): > 1000 nM | IC50 (PI3K alpha): > 1000 nM

CC(C)n1nc(-c2ccc3nc(N)sc3c2)c2c(N)ncnc21 [Compound 3]
IC50 (mTORC): ≤ 50 nM | IC50 (PI3K alpha): ≤ 500 nM | IC50 (PI3K beta): > 1000 nM | IC50 (PI3K delta): ≤ 100 nM

CNC(=O)Nc1nc2ccc(-c3cn(C4CCN(C(C)=O)CC4)c4ncnc(N)c34)cc2s1 [Compound 23]
IC50 (mTORC): ≤ 50 nM | IC50 (PC3): > 1000 nM | IC50 (PI3K beta): ≤ 100 nM

CCNc1nc2ccc(-c3nn(C(C)C)c4ncnc(N)c34)cc2s1 [Compound 12]
IC50 (mTORC): ≤ 500 nM | IC50 (PI3K gamma): ≤ 500 nM | IC50 (PI3K alpha): ≤ 500 nM | IC50 (PI3K delta): ≤ 1000 nM

CC(C)[N+](C)(CCOC(=O)C1c2ccccc2Oc2ccccc21)C(C)C [propantheline]
plasma stability [2]: intermediate plasma stability

CNC(=O)Nc1nc2ccc(-c3nn(C(C)C)c4ncnc(N)c34)cc2s1 [Compound 20]
IC50 (mTORC): ≤ 50 nM

CC(=O)Nc1nc2ccc(-c3nn(C4CCOCC4)c4ncnc(N)c34)cc2s1 [Compound 19]
IC50 (mTORC): ≤ 50 nM | IC50 (PI3K alpha): ≤ 500 nM

CC(C)n1nc(-c2ccc3nc(NCCO)sc3c2)c2c(N)ncnc21 [Compound 16]
IC50 (mTORC): ≤ 1000 nM | IC50 (PI3K alpha): ≤ 1000 nM

CC(C)n1nc(-c2ccc3nc(NC4CC4)sc3c2)c2c(N)ncnc21 [Compound 15]
IC50 (mTORC): ≤ 500 nM | IC50 (PI3K alpha): > 1000 nM | IC50 (PI3K beta): > 1000 nM

CC(=O)Nc1nc2ccc(-c3nn(C4CCCC4)c4ncnc(N)c34)cc2s1 [Compound 4]
IC50 (mTORC): ≤ 50 nM | IC50 (PI3K beta): > 1000 nM
